Data: ChEMBL document CHEMBL1268952, “Design, synthesis, and evaluation of indolinones as inhibitors of the transforming growth factor β receptor I (TGFβRI)” (J Med Chem, 2010)

What was measured:
[1] = molecular target: Mitogen-activated protein kinase 8 (Homo sapiens) (UniProt P45983); assay: Inhibition of SAPK1c at 2 uM
[2] = molecular target: T1, Serine/threonine-protein kinase Sgk1 (Homo sapiens) (UniProt O00141); assay: Inhibition of SGK at 1 uM; values are per cent of control
T1 sequence (whole entry): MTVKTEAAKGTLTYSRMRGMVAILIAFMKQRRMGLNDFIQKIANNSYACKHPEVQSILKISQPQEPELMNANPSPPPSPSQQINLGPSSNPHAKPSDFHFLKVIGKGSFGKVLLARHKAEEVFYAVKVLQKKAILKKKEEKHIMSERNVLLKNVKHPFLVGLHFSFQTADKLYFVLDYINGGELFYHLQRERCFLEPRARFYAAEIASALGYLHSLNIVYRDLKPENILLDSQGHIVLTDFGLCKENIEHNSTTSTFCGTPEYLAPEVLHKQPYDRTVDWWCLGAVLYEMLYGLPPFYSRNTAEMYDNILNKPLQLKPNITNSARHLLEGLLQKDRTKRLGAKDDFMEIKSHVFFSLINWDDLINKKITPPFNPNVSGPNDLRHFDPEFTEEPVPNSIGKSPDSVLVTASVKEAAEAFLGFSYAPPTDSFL

[3] = Inhibition of PKB at 1 uM; values are per cent of control
[4] = Inhibition of PKA at 1 uM; values are per cent of control
[5] = Inhibition of CK1 at 1 uM; values are per cent of control
[6] = molecular target: T2, MAP kinase-activated protein kinase 5 (Homo sapiens) (UniProt Q8IW41); assay: Inhibition of PRAK at 1 uM; values are per cent of control
T2 sequence (whole entry): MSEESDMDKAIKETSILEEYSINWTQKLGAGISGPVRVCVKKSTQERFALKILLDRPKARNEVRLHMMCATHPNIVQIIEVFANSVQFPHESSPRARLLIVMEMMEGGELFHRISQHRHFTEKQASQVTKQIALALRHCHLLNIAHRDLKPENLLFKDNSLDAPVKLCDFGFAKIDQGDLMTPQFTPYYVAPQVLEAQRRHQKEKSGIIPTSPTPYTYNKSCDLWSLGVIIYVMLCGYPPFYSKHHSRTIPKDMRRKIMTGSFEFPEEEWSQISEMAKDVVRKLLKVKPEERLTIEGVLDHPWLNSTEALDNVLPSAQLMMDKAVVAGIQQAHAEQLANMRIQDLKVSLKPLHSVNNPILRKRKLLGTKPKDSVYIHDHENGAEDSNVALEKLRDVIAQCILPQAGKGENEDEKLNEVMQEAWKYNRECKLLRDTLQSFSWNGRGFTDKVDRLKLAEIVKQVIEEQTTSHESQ

[7] = molecular target: Ribosomal protein S6 kinase alpha-5 (Homo sapiens) (UniProt O75582); assay: Inhibition of MSK1 at 1 uM; values are per cent of control
[8] = molecular target: Mitogen-activated protein kinase 1 (Homo sapiens) (UniProt P28482); assay: Inhibition of ERK2 at 1 uM; values are per cent of control
[9] = molecular target: T3, Serine/threonine-protein kinase Chk1 (Homo sapiens) (UniProt O14757); assay: Inhibition of CHK1 at 1 uM; values are per cent of control
T3 sequence (whole entry): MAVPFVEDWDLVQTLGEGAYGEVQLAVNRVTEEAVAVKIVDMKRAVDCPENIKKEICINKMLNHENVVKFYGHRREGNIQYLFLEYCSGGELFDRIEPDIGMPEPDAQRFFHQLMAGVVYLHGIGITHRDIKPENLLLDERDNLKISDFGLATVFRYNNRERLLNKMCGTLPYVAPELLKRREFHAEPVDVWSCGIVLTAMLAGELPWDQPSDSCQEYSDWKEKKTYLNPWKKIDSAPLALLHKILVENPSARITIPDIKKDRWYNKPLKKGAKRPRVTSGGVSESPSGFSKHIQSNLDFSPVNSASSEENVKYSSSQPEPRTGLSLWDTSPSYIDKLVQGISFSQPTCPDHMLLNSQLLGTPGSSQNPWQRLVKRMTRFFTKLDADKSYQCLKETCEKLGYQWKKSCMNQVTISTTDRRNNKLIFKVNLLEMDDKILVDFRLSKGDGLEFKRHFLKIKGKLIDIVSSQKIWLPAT

[10] = molecular target: Rho-associated protein kinase 2 (Homo sapiens) (UniProt O75116); assay: Inhibition of ROCK2 at 1 uM; values are per cent of control
[11] = molecular target: T4, Serine/threonine-protein kinase Nek2 (Homo sapiens) (UniProt P51955); assay: Inhibition of NEK2A at 1 uM; values are per cent of control
T4 sequence (whole entry): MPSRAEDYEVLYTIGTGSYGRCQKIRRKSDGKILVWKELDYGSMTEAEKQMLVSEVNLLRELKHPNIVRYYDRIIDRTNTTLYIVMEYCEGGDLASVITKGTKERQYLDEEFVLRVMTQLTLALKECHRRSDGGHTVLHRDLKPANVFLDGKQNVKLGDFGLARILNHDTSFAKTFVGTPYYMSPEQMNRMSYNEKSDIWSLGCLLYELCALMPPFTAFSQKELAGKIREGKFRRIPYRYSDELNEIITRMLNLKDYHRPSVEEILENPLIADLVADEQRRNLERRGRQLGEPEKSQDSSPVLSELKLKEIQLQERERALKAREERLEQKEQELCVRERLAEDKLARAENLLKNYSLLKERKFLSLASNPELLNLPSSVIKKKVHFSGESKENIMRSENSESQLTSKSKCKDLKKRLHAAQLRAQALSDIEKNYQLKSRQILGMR

[12] = molecular target: Dual specificity mitogen-activated protein kinase kinase 1 (Homo sapiens) (UniProt Q02750); assay: Inhibition of MKK1A at 1 uM; values are per cent of control
[13] = molecular target: Dual specificity tyrosine-phosphorylation-regulated kinase 1A (Homo sapiens) (UniProt Q13627); assay: Inhibition of DYRK1A at 1 uM; values are per cent of control
[14] = molecular target: Mitogen-activated protein kinase 14 (Homo sapiens) (UniProt Q16539); assay: Inhibition of p38alpha at 1 uM; values are per cent of control
[15] = molecular target: Glycogen synthase kinase-3 beta (Homo sapiens) (UniProt P49841); assay: Inhibition of GSK3-beta at 1 uM; values are per cent of control
[16] = molecular target: Cyclin-dependent kinase 2/cyclin A (Homo sapiens) (UniProt P24941+P20248+P78396); assay: Inhibition of CDK2/cyclin A at 1 uM; values are per cent of control

Sequence of Glycogen synthase kinase-3 beta (Homo sapiens) (P49841 whole entry, looked up): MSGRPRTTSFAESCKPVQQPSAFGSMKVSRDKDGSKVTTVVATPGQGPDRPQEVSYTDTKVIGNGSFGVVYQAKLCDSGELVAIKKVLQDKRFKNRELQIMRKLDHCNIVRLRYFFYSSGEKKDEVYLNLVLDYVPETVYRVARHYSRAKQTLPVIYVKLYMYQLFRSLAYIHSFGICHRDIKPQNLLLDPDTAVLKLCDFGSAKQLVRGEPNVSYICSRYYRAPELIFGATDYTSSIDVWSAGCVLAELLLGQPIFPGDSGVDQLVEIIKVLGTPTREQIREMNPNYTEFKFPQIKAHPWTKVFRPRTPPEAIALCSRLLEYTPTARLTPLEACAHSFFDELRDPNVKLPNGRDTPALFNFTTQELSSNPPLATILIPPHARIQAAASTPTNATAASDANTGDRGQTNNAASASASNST
Sequence of Mitogen-activated protein kinase 1 (Homo sapiens) (P28482 whole entry): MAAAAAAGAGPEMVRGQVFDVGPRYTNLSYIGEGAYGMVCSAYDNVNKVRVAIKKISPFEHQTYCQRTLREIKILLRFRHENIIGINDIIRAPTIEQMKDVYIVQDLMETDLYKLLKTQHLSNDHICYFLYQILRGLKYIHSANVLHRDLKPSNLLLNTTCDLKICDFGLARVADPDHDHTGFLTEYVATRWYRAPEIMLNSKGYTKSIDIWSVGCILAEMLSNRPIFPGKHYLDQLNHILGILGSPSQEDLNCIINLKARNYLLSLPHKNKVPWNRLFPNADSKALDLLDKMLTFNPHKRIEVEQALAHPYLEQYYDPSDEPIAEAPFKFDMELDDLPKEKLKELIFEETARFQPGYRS
Sequence of Mitogen-activated protein kinase 8 (Homo sapiens) (P45983 whole entry): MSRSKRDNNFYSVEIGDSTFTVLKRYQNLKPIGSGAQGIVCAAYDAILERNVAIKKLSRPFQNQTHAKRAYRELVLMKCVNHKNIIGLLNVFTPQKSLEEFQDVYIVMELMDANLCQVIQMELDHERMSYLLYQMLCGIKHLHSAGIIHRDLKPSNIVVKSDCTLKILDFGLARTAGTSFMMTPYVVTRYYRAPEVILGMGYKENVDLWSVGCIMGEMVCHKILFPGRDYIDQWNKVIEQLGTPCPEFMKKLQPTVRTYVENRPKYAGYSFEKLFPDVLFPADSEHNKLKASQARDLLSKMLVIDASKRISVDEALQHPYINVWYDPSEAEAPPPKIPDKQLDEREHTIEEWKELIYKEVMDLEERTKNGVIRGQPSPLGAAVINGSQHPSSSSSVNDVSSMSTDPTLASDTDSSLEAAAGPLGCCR
Sequence of Rho-associated protein kinase 2 (Homo sapiens) (O75116 whole entry, looked up): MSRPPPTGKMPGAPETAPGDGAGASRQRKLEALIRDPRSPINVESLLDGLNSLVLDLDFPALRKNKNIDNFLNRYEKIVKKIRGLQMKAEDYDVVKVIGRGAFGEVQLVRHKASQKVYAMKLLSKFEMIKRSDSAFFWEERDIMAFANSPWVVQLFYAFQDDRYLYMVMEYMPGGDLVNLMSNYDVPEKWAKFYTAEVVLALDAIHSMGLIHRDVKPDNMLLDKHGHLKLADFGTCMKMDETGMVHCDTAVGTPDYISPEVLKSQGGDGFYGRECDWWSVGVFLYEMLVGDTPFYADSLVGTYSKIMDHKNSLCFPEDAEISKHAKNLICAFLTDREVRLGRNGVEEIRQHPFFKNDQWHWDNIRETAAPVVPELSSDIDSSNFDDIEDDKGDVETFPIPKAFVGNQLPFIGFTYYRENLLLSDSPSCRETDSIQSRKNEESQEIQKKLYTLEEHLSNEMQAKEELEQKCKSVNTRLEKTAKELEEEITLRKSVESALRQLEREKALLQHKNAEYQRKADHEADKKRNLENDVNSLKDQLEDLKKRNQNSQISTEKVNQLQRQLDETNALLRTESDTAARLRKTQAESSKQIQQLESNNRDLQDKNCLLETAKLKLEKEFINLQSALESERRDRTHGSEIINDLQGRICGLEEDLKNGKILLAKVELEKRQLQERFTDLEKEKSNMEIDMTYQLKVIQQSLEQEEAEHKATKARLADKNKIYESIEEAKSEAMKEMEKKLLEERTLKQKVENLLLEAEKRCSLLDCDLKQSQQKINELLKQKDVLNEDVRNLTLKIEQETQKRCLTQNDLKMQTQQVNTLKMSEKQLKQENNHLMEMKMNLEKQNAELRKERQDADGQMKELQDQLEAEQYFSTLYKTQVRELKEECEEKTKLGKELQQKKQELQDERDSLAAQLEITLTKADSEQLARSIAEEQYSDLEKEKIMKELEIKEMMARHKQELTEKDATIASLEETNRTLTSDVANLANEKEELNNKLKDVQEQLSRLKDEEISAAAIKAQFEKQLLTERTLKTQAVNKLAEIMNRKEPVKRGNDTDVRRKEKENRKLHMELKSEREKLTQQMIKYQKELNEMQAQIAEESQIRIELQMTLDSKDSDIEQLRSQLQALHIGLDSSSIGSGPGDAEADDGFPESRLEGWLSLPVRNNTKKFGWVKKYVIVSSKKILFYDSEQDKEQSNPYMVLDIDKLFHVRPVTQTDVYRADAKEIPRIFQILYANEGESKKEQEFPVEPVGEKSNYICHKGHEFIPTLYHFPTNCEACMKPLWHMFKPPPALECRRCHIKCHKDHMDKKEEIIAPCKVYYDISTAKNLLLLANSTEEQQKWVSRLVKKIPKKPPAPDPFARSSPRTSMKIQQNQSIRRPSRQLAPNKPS
Sequence of Mitogen-activated protein kinase 14 (Homo sapiens) (Q16539 whole entry): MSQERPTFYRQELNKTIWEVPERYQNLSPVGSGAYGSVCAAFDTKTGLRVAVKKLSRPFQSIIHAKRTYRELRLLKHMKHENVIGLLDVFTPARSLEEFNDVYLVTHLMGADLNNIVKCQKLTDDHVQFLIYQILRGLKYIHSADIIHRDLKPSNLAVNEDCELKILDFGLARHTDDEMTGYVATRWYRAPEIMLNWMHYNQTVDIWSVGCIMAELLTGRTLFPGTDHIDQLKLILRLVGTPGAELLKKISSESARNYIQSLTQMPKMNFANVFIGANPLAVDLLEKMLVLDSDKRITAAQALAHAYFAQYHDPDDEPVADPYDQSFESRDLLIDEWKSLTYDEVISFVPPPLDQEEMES
Sequence of Dual specificity mitogen-activated protein kinase kinase 1 (Homo sapiens) (Q02750 whole entry): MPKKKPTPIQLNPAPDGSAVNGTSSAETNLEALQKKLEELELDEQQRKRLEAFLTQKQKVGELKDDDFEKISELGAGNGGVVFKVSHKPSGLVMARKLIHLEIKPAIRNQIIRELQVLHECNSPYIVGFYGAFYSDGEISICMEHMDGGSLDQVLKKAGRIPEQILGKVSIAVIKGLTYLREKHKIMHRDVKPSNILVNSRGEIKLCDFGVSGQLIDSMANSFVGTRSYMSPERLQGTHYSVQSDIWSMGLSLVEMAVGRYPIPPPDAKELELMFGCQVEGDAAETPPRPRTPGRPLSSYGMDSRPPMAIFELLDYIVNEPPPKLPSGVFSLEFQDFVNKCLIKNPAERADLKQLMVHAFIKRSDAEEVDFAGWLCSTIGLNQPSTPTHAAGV
Sequence of Ribosomal protein S6 kinase alpha-5 (Homo sapiens) (O75582 whole entry, looked up): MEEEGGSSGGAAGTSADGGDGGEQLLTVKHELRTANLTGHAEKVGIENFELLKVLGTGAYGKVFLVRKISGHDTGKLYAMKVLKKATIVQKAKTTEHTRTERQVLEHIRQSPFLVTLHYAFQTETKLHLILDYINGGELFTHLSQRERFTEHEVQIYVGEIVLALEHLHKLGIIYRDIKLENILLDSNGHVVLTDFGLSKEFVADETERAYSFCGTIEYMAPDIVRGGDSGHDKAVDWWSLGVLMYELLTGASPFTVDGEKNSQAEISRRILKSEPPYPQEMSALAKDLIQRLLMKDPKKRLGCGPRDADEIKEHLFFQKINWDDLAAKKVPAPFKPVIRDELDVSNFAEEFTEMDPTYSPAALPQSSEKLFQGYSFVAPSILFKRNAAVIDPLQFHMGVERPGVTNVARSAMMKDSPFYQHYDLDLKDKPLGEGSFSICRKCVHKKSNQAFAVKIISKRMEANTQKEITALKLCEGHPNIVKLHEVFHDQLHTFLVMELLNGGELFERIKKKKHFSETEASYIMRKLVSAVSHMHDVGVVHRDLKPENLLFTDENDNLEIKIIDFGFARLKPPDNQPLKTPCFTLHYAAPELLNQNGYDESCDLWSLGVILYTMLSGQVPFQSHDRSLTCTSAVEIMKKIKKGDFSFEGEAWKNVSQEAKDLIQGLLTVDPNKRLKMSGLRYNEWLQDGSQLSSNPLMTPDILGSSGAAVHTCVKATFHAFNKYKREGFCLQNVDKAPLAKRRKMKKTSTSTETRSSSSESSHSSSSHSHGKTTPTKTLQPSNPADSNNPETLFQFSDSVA

Row | SMILES | residual activity [1] | residual activity [2] | residual activity [3] | residual activity [4] | residual activity [5] | residual activity [6] | residual activity [7] | residual activity [8] | residual activity [9] | residual activity [10] | residual activity [11] | residual activity [12] | residual activity [13] | residual activity [14] | residual activity [15] | residual activity [16]
1 | CCNC(=O)c1ccc2c(c1)NC(=O)/C2=C(\Nc1ccc(CN(C)C)cc1)c1ccccc1 | 99% | 124% | 106% | 90% | 102% | 96% | 104% | 98% | 84% | 95% | 98% | 93% | 105% | 121% | 114% | 103%
2 | CN(C)C(=O)c1ccc2c(c1)/C(=C(/Nc1ccc(CN3CCCCC3)cc1)c1ccccc1)C(=O)N2 | 90% | 68% | 93% | 69% | 95% | 59% | 36% | 95% | 8% | 79% | 81% | 4% | 45% | 91% | 5% | 39%
3 | O=C1Nc2ccccc2/C1=C(/Nc1ccc(CN2CCCCC2)cc1)c1ccccc1 | 8% | 20% | 88% | 12% | 17% | 38% | 8% | 77% | 6% | 54% | 39% | 0% | 18% | 96% | 1% | 38%
4 | CCNC(=O)c1ccc2c(c1)NC(=O)/C2=C(\Nc1ccc(N(CCN(C)C)S(C)(=O)=O)cc1)c1ccccc1 | 105% | 107% | 90% | 75% | 100% | 67% | 105% | 104% | 51% | 88% | 70% | 80% | 96% | 110% | 124% | 100%
5 | CCNCc1ccc(N/C(=C2\C(=O)Nc3cc(C(=O)N(C)CC)ccc32)c2ccccc2)cc1 | 91% | 106% | 92% | 96% | 90% | 70% | 83% | 87% | 85% | 80% | 72% | 50% | 86% | 85% | 56% | 87%
6 | CCN(C)C(=O)c1ccc2c(c1)NC(=O)/C2=C(\Nc1ccc(CN2CCCCC2)cc1)c1ccccc1 | 89% | 123% | 97% | 96% | 108% | 87% | 92% | 96% | 74% | 88% | 96% | 47% | 88% | 92% | 82% | 110%
